Drawing on article PMC7377239, “Cardiovascular Effects of Polychlorinated Biphenyls and Their Major Metabolites” (Environmental Health Perspectives, 2020), this text covers minimal effective concentration for 1 compound.

Read-outs that look alike come from different tables or passages of the source.

Experiment [1] deals with iCell endothelial cells (human iPSC-derived ECs). Briefly: Tube formation (tubulogenesis) assay in iCell endothelial cells, 18 h. The class given is cell-based. The note with it: Homo sapiens, Endothelial cell, endothelial cells (endo), 18 hr. The method, then:
The culture conditions of iCell®-endothelial cells were as reported elsewhere ([Iwata et al. 2017]). Briefly, T75 flasks were coated with a fibronectin solution ( 3 μg/cm^2 ) followed by incubation for 1–2 h. Cells were thawed for 3 min in a 37°C water bath. Thawed cells were added to maintenance medium made of VascuLife VEGF Medium Complete Kit, excluding the supplied FBS, and iCell® Endothelial Cells Medium Supplement. The final formulation of the maintenance medium is detailed in ([Iwata et al. 2017]). The aliquoted fibronectin solution was aspirated from the T75 flasks, and cells were seeded at 1.0×10^4 cells/cm^2 . Cells were maintained at 37°C and 5% CO2 with media changes occurring every 2 d and passaged every 3–4 d using TrypLE™ Express. All experiments were conducted on cells between passages 1 and 5.
(§1) Tube formation assays were performed on Geltrex™ LDEV-free reduced growth factor basement membrane using both iCell®-endothelial cells and HUVECs in 384-well format exactly as detailed in Iwata et al. ([2017]). Negative controls included media-only and vehicle control (i.e., 0.5% vol/vol DMSO in cell culture media) wells. Positive assay controls were consistent with previously published reports ([Iwata et al. 2017]) and included TAB ( 50μM ) as a cytotoxic control, and nocodazole ( 0.01–1μM ), suramin ( 0.5–50μM ), histamine ( 0.1–100μM ), and chloroquine ( 1–500μM ) as chemicals associated with specific effects on ECs. Each test chemical was screened in triplicate for each concentration. Briefly, for iCell®-endothelial cells, starvation media consisted of VascuLife® basal medium with 4 mM L-glutamine LifeFactor and 0.1% iCell®-endothelial cells medium supplement. To counter dilution effects, a 2× concentration of the HUVEC maintenance medium supplemented with additional VEGF was created (EGM™-2 BulletKits™ at 2× concentration; also the VEGF component was replaced with 12.5 ng/mL VEGF). Geltrex™ LDEV-free reduced growth factor basement membrane was thawed overnight and dispensed into 384-well plates ( 10μL/well ) with tapping and rotating to evenly coat. The plates were incubated for 1 h in a cell culture incubator at 37°C and 5% CO2 . A 2× PCB plate (containing all of the PCBs and metabolites in dose–response) was prepared in basal media and added, 25μL per well, to the Geltrex™ coated plates. On separate plates, cells were seeded 7,500 (iPSC- ECs) or 3,500 (HUVEC) cells/well. Cells were exposed to chemicals overnight at 37°C and 5% CO2 and stained with 3× concentration of calcein AM ( 25μL /well, 6μmol/L ) for 15 min before imaging. Images were captured at 4× magnification with the FITC filter (calcein AM). Images were analyzed with the angiogenesis module software within MetaXpress™ (Molecular Devices).
(§2) Phenotypic responses were quantitatively assessed using concentration–response modeling as detailed elsewhere ([Sirenko et al. 2017]). Briefly, phenotypic readouts were normalized to vehicle controls and fit to a four-parameter logistic model in R studio software (version 3.1.1; R Development Core Team). Following EPA guidance on dose–response modeling, a cutoff of one standard deviation across means of vehicle control (i.e., 0.5% vol/vol DMSO in cell culture media) wells was applied to determine the point-of-departure (POD) values ([U.S. EPA 2012]). In the absence of a concentration–response, the highest tested concentration (i.e., 100μM ) was assigned as “no observable adverse effect level.” The concentration–response assessment R script, as well as templates for vehicle and concentration–response data, are available as a supplement to Sirenko et al. ([2017]). The ability of physicochemical properties to predict differences in PODs were evaluated by multiregression and mixed-effects modeling using R.

In experiment [2] the test system is HUVECs. Briefly: Tube formation (tubulogenesis) assay in HUVECs, 18 h. The class given is cell-based, human. Conditions: Homo sapiens, HUVEC, 18 h, HUVEC. The method, then: Similar to the cultivation of iCell®-endothelial cells, HUVEC maintenance and experimentation are detailed elsewhere ([Iwata et al. 2017]). Briefly, HUVECs were thawed, seeded, and grown in T75 tissue culture flasks in Medium 199 with EGM™-2 BulletKits™. HUVECs were incubated at regular cell culture conditions, 37°C and 5% CO2 , and passaged every 2–3 d using TrypLE™ Express. To ensure adequate endothelial function, experiments were performed with cells between passages 1 and 5.
as §1, §2

Take `Oc1ccc(O)c(-c2ccc(Cl)cc2)c1` [2',5'-diOH-PCB 3, 4-Chloro-2′,5′-dihydroxybiphenyl]: the minimal effective concentration was determined as 0.47 µM in experiment [1] (tube formation mtl, read-out: POD endo.mtl.18hr); 0.53 µM in experiment [1] (tube formation tlps, read-out: POD endo.tlps.18hr); 1.63 µM in experiment [1] (tube formation tta, read-out: POD endo.tta.18hr); 1.51 µM in experiment [1] (tube formation ttl, read-out: POD endo.ttl.18hr); 1.26 µM in experiment [2] (tube formation mtl, read-out: POD huvec.mtl.18hr); 1.55 µM in experiment [2] (tube formation tlps, read-out: POD huvec.tlps.18hr). Further, the minimal effective concentration in experiment [2] (tube formation tta, read-out: POD huvec.tta.18hr) worked out at 1.39 µM; in experiment [2] (tube formation ttl, read-out: POD huvec.ttl.18hr), 1.23 µM.
